Measured values taken from patent publication US10239843B2 (CANCER RESEARCH TECHNOLOGY LIMITED, priority 2014, dated 2019).
pIC50: −log10 of the molar value. Like-named read-outs stand apart in the source and are kept apart here.

Target: Human Full Length PARG (Homo sapiens (Human), UniProt Q86W56)
Assay: PARG enzyme assay (TR-FRET)
Type: biochemical
[1] = read-out: PARG Biochem IC50 Geomean

Human Full Length PARG, sequence (Q86W56 whole entry): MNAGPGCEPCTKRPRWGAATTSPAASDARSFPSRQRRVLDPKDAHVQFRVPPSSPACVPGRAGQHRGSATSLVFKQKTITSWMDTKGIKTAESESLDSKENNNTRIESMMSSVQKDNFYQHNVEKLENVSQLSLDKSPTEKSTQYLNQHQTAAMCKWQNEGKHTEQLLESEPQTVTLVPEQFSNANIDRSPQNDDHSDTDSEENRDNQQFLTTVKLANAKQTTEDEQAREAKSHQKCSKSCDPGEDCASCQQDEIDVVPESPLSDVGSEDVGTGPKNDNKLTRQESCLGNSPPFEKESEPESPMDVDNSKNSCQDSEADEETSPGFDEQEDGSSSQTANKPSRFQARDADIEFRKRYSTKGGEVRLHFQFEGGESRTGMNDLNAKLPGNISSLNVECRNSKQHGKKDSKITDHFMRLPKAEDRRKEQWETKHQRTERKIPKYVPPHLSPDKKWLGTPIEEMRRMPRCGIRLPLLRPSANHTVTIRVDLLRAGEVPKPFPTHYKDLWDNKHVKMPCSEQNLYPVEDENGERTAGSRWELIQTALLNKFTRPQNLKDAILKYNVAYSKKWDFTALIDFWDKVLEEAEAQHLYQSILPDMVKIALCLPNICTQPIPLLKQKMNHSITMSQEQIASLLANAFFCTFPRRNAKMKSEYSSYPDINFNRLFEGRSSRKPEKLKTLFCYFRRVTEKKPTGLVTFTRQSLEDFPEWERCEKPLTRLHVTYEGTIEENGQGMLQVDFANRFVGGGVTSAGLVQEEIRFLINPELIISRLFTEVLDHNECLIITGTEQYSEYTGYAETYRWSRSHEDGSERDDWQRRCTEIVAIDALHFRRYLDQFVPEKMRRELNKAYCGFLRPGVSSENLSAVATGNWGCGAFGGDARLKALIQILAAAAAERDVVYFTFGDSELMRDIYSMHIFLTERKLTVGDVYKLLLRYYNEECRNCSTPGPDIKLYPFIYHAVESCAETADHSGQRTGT

Row | SMILES | pIC50 [1] | pIC50 (read-out: PARG Biochem IC50)
1 | CNc1nn(C)c(=O)c2cc(S(=O)(=O)NC3(C)CC3)ccc12 [Example 234, 3-Methyl-1-(methylamino)-N-(1-methylcyclopropyl)-4-oxo-phthalazine-6-sulfonamide] | 5.70 | –
2 | Cc1cc(C)cc(Cn2c(=O)n(C)c(=O)c3cc(S(=O)(=O)NC4(C)CC4)ccc32)c1 [Example 77] | 5.77 | –
3 | Cn1c(=O)c2cc(S(=O)(=O)NC3(C#N)CC3)ccc2n(C)c1=O [Example 3] | 5.30 | –
4 | Cc1cc(Cn2cc(C#CCN(C)C)c3ccc(S(=O)(=O)NC4(C)CC4)cc3c2=O)on1 [Example 286, 4-[3-(Dimethylamino)prop-1-ynyl]-N-(1-methylcyclopropyl)-2-[(3-methylisoxazol-5-yl)methyl]-1-oxo-isoquinoline-7-sulfonamide] | 6.07 | –
5 | Cc1cc(Cn2nc(C(=O)NCC3CCN(C)CC3)c3ccc(S(=O)(=O)NC4(C)CC4)cc3c2=O)on1 [Example 333] | 6.11 | –
6 | Cn1cnnc1Cn1c(=O)c2cc(S(=O)(=O)NC3(C)CC3)ccc2n(C)c1=O [Example 499, 1-Methyl-N-(1-methylcyclopropyl)-3-[(4-methyl-1,2,4-triazol-3-yl)methyl]-2,4-dioxo-quinazoline-6-sulfonamide] | – | 5.61
7 | Cc1nc2ccc(S(=O)(=O)NC3(C)CC3)cc2c(=O)n1C [Example 51] | 5.38 | –
8 | Cn1c(=O)c2cc(S(=O)(=O)NC3(C)CC3)ccc2n(Cc2noc(C(N)=O)n2)c1=O [Example 95] | 6.12 | –
9 | Cn1cc(Cn2c(=O)c3cc(S(=O)(=O)NC4(C)CC4)ccc3n(CCN3CCCC3=O)c2=O)cn1 [Example 334] | 5.37 | –
10 | Cn1c(=O)n(Cc2ccns2)c(=O)c2cc(S(=O)(=O)NC3(C)CC3)ccc21 [Example 510, 3-(Isothiazol-5-ylmethyl)-1-methyl-N-(1-methylcyclopropyl)-2,4-dioxo-quinazoline-6-sulfonamide] | – | 5.64
11 | CC1(NS(=O)(=O)c2ccc3[nH]c(=O)[nH]c(=O)c3c2)CC1 [Example 1] | 5.04 | –
12 | Cc1cc(Cn2nc(C(=O)N(C)C)c3ccc(S(=O)(=O)NC4(C)CC4)cc3c2=O)on1 [Example 326] | 5.06 | –
13 | CN1CCCC(Cn2c(=O)n(Cc3cnn(C)c3)c(=O)c3cc(S(=O)(=O)NC4(C)CC4)ccc32)C1 (centres unmarked) [Example 236] | 5.17 | –
14 | Cn1c(=O)c2cc(S(=O)(=O)NC3(C)CC3)ccc2n(CC2CCOC2)c1=O (centres unmarked) [Example 37] | 5.83 | –
15 | Cn1c(=O)n(Cc2nnc(C(F)(F)F)o2)c(=O)c2cc(S(=O)(=O)NC3(C)CC3)ccc21 [Example 501, 1-Methyl-N-(1-methylcyclopropyl)-2,4-dioxo-3-[[5-(trifluoromethyl)-1,3,4-oxadiazol-2-yl]methyl]quinazoline-6-sulfonamide] | – | 5.79
16 | Cn1c(=O)n(CC(=O)N2CCC[C@H]2C(N)=O)c(=O)c2cc(S(=O)(=O)NC3(C)CC3)ccc21 [Example 86] | 5.26 | –
17 | Cc1noc(C)c1Cn1c(=O)n(C)c(=O)c2cc(S(=O)(=O)NC3(C)CC3)ccc21 [Example 121] | 5.60 | –
18 | COC(=O)c1nn(Cc2cc(C)no2)c(=O)c2cc(S(=O)(=O)NC3(C)CC3)ccc12 [Example 301] | 6.08 | –
19 | Cc1ccc(Cn2c(=O)n(C)c(=O)c3cc(S(=O)(=O)NC4(C)CC4)ccc32)cc1 [Example 58] | 5.80 | –
20 | Cc1cc(Cn2c(=O)c3cc(S(=O)(=O)NC4(C)CC4)ccc3n(CC(C)(C)F)c2=O)on1 [Example 453, 1-(2-Fluoro-2-methyl-propyl)-N-(1-methylcyclopropyl)-3-[(3-methylisoxazol-5-yl)methyl]-2,4-dioxo-quinazoline-6-sulfonamide] | – | 6.46

Row | SMILES | pIC50 [1] | pIC50 (read-out: PARG Biochem IC50)
21 | Cn1c(=O)n(CC(=O)c2ccncc2)c(=O)c2cc(S(=O)(=O)NC3(C)CC3)ccc21 [Example 528, 1-Methyl-N-(1-methylcyclopropyl)-2,4-dioxo-3-[2-oxo-2-(4-pyridyl)ethyl]quinazoline-6-sulfonamide] | – | 5.76
22 | CCN(CC)c1ccc(C(=O)Cn2c(=O)c3cc(S(=O)(=O)NC4(C)CC4)ccc3n(C)c2=O)cc1 [Example 110] | 5.17 | –
23 | Cc1cc(Cn2c(=O)[nH]c3ccc(S(=O)(=O)NC4(C)CC4)cc3c2=O)on1 [Example 221, N-(1-methylcyclopropyl)-3-[(3-isoxazol-5-yl)methyl]-2,4-dioxo-1H-quinazoline-6-sulfonamide] | 6.19 | –
24 | Cn1c(=O)n(Cc2ccc(C(N)=O)cc2)c(=O)c2cc(S(=O)(=O)NC3(C)CC3)ccc21 [Example 89] | 5.23 | –
25 | Cn1c(=O)c2cc(S(=O)(=O)NC3(C)CC3)ccc2n(Cc2c(Cl)cccc2Cl)c1=O [Example 74] | 5.68 | –
26 | Cc1cc(Cn2c(=O)c3cc(S(=O)(=O)NC4(C)CC4)cnc3n(C)c2=O)on1 [Example 205] | 5.59 | –
27 | Cc1cc(Cn2cc(CCCN(C)C)c3ccc(S(=O)(=O)NC4(C)CC4)cc3c2=O)on1 [Example 287, 4-[3-(dimethylamino)propyl]-N-(1-methylcyclopropyl)-2-[(3-methylisoxazol-5-yl)methyl]-1-oxo-isoquinoline-7-sulfonamide] | 5.97 | –
28 | Cn1c(=O)n(Cc2cnn(CC(N)=O)c2)c(=O)c2cc(S(=O)(=O)NC3(C)CC3)ccc21 [Example 203] | 6.20 | –
29 | Cc1cc(Cn2nc(C)c3ccc(S(=O)(=O)NC4(C)CC4)cc3c2=O)on1 [Example 284, 1-methyl-N-(1-methylcyclopropyl)-3-[(3-methylisoxazol-5-yl)methyl]-4-oxo-phthalazine-6-sulfonamide] | 5.93 | –
30 | Cc1nc(-c2ccccc2)c(Cn2c(=O)n(C)c(=O)c3cc(S(=O)(=O)NC4(C)CC4)ccc32)s1 [Example 134] | 6.12 | –
31 | Cn1c(=O)[nH]c(=O)c2cc(S(=O)(=O)NC3(CF)CC3)ccc21 [Example 512, N-[1-(Fluoromethyl)cyclopropyl]-1-methyl-2,4-dioxo-quinazoline-6-sulfonamide] | – | 5.53
32 | Cc1cc(Cn2nc(CC3CCC3)c3ccc(S(=O)(=O)NC4(C)CC4)cc3c2=O)on1 [Example 320] | 6.17 | –
33 | Cn1c(=O)c2cc(S(=O)(=O)NC3(C)CC3)ccc2n(CC#N)c1=O [Example 175] | 5.36 | –
34 | Cc1cc(Cn2nc(OC3CCC3)c3ccc(S(=O)(=O)NC4(C)CC4)cc3c2=O)on1 [Example 319] | 6.07 | –
35 | Cn1c(=O)n(Cc2cnc[nH]2)c(=O)c2cc(S(=O)(=O)NC3(C)CC3)ccc21 [Example 505, 3-(1H-Imidazol-4-ylmethyl)-1-methyl-N-(1-methylcyclopropyl)-2,4-dioxo-quinazoline-6-sulfonamide] | – | 5.42
36 | Cc1nnsc1Cn1c(=O)c2cc(S(=O)(=O)NC3(C)CC3)ccc2n(C)c1=O [Example 191] | 6.06 | –
37 | CC1(NS(=O)(=O)c2cc3c4c(cccc4c2)C(=O)NC3=O)CC1 [Example 447, N-(1-Methylcyclopropyl)-1,3-dioxo-benzo[de]isoquinoline-5-sulfonamide] | – | 5.46
38 | Cn1c(=O)c2cc(S(=O)(=O)NC3(C)CC3)ccc2n(Cc2ccccn2)c1=O [Example 82] | 5.24 | –
39 | Cc1cc(Cn2c(=O)c3cc(S(=O)(=O)NC4(C)CC4)ccc3n(C)c2=O)no1 [Example 103] | 5.28 | –
40 | Cn1c(=O)n(CC(=O)c2ccccc2)c(=O)c2cc(S(=O)(=O)NC3(C)CC3)ccc21 [Example 530, 1-Methyl-N-(1-methylcyclopropyl)-2,4-dioxo-3-phenacyl-quinazoline-6-sulfonamide] | – | 5.79

Row | SMILES | pIC50 [1] | pIC50 (read-out: PARG Biochem IC50)
41 | Cc1cc(COc2nc3ccc(S(=O)(=O)NC4(C)CC4)cc3c(=O)n2Cc2c(C)noc2C)n(C)n1 [Example 167] | 6.15 | –
42 | Cc1nc2ccc(S(=O)(=O)NC3(C)CC3)cc2c(=O)[nH]1 [Example 52] | 5.16 | –
43 | Cn1c(=O)n(CC(=O)Nc2ccccc2)c(=O)c2cc(S(=O)(=O)NC3(C)CC3)ccc21 [Example 85] | 5.65 | –
44 | Cn1ccnc1Cn1c(=O)n(C)c(=O)c2cc(S(=O)(=O)NC3(C)CC3)ccc21 [Example 48] | 6.12 | –
45 | C#CCn1c(=O)c2cc(S(=O)(=O)NC3(C)CC3)ccc2n(C)c1=O [Example 47] | 5.53 | –
46 | Cc1cccc(Cn2c(=O)n(C)c(=O)c3cc(S(=O)(=O)NC4(C)CC4)ccc32)c1 [Example 57] | 5.95 | –
47 | CCn1c(=O)c2cc(S(=O)(=O)NC3(C#N)CC3)ccc2n(CC)c1=O [Example 5] | 5.74 | –
48 | Cn1c(=O)[nH]c2cc(F)c(S(=O)(=O)NC3(C)CC3)cc2c1=O [Example 211, 7-Fluoro-3-methyl-N-(1-methylcyclopropyl)-2,4-dioxo-1H-quinazoline-6-sulfonamide] | 5.81 | –
49 | Cn1c(=O)c2cc(S(=O)(=O)NC3(C)CC3)ccc2n(CC2CCCO2)c1=O (centres unmarked) [Example 49] | 5.62 | –
50 | Cn1c(=O)n(Cc2cnn(Cc3ccccc3)c2)c(=O)c2cc(S(=O)(=O)NC3(C)CC3)ccc21 [Example 215] | 6.23 | –
51 | Cc1cc(Cn2nc(C#CCN(C)C)c3ccc(S(=O)(=O)NC4(C)CC4)cc3c2=O)on1 [Example 283, 1-[3-(dimethylamino)prop-1-ynyl]-N-(1-methylcyclopropyl)-3-[(3-methylisoxazol-5-yl)methyl]-4-oxo-phthalazine-6-sulfonamide] | 6.29 | –
52 | Cn1ccnc1Cn1c(=O)c2cc(S(=O)(=O)NC3(C)CC3)ccc2n(C)c1=O [Example 113] | 5.13 | –
53 | Cn1c(=O)c2cc(S(=O)(=O)NC3(C)CC3)ccc2n(Cc2cscn2)c1=O [Example 148] | 6.07 | –
54 | CC1(NS(=O)(=O)c2ccc3c(c2)[nH]c(=O)c(=O)n3Cc2ccc(F)cc2)CC1 [Example 128, 1-[(4-Fluorophenyl)methyl]-N-(1-methylcyclopropyl)-2,3-dioxo-4H-quinoxaline-6-sulfonamide] | 5.29 | –
55 | Cn1nc(Cl)c2ccc(S(=O)(=O)NC3(C)CC3)cc2c1=O [Example 227, 1-Chloro-3-methyl-N-(1-methylcyclopropyl)-4-oxo-phthalazine-6-sulfonamide] | 5.29 | –
56 | Cn1c(=O)c2cc(S(=O)(=O)NC3(C)CC3)ccc2n(Cc2cccc(C#N)c2)c1=O [Example 69] | 5.94 | –
57 | Cn1c(=O)c2cc(S(=O)(=O)NC3(C)CC3)ccc2n(CC(=O)Nc2ccccc2)c1=O [Example 92] | 5.38 | –
58 | CN(C)CCn1cc(Cn2c(=O)c3cc(S(=O)(=O)NC4(C)CC4)ccc3n(C)c2=O)cn1 [Example 219] | 5.61 | –
59 | CCC1(NS(=O)(=O)c2ccc3c(c2)c(=O)n(Cc2cc(C)no2)c(=O)n3C)CC1 [Example 261] | 5.52 | –
